Patent publication US20260217701A1, “SELECTIVE BET INHIBITORS AND USES THEREOF” (Tay Therapeutics Limited, priority 2022, published 2026)
“And” between values parts separate entries of the source, which are not always exact repeats. Identical values can stand only once.

Assays:
BRD4 BD2 = molecular target: T1, BRD4 BD2 (Homo sapiens, UniProt O60885); test: NanoBRET bromodomain assay, NanoLuc-BRD4-BD2 in HEK293 cells; format: binding; details: nanoBRET assay, given as symbol only
T1 construct: HEK293 cells were transfected using NanoLuc-BRD4-BD1 or NanoLuc-BRD4-BD2 fusion vectors
Experimental: Plates were then incubated at 37° C.+5% CO2 incubator for 2 hours.
Fold Selectivity Calculated (IC50 BD1/IC50 BD2).

[1] = tested on: imiquimod-induced psoriasis; test: Imiquimod-induced psoriasis model; format: in vivo, mice; parameters: Spleen Weight / Spleen Weight Ratio: unit not given here; details: for PASI Scores: IMI + Deucravacitinib 3 mg/kg; for Mean scores of the presence of erythema on the skin of animals at the area of induction of psoriasis / Mean scores of the presence of induration on the skin of animals at the area of induction of psoriasis / Mean scores of the presence of peeling on the skin of animals at the area of induction of psoriasis: mean ± SEM
Source text: Imiquimod-induced psoriasis is a model of psoriasis in mice that induces psoriasis-like dermatitis. The pathology closes resembles human plaque-type psoriasis and is a valuable tool for testing new therapies against psoriasis. […] Compound A was formulated in a 5% DMSO/40% PEG-400/55% (0.9% NaCl w/v water) solution (Table 2F). Experimental groups for the study are outlined in Table 4. Prior to study initiation, the backs of all animals in the study were depilated to allow for induction of psoriasis and monitoring of disease progression.
Once assigned to experimental groups, on Day 1 and continuing through Day 14, topical imiquimod (IMI; Aldara™ containing 5% Imiquimod) was administered to the dorsal depilated animals, and animals in group 1 received topical administration of Excipial® hydrocream (65 mg). […] Clobetasol was applied topically for animals in group 11.
Body weights were recorded three times a week from Day 1 to Day 8, and daily from Day 8 until the study end at Day 15. At termination on D15 the spleen weight ratio was determined. Disease severity was assessed using the psoriasis area severity index (PASI) daily from Day 8 until study completion on Day 15. The PASI score was calculated based on three parameters (presence of erythema, induration of the skin, and peeling of the skin at the area of induction) on a scale of 0 to 4 (0=no more or absence, 1=low, 2=moderate, 3=high, 4=severe). The PASI score for each animal was calculated as the sum of the score of each parameter measured. The score of the use of enrichment (SUE) was also assessed daily from Day 8 to Day 15. At study completion on Day 15, animal behavior was evaluated using an open field to assess distance travelled, number scratching, and licking and rearing performed in 10 minutes. Upon study termination animals were sacrificed, the spleen was excised and weighed, and blood samples were collected. Serum was isolated from the blood sample for cytokine and other biomarker analysis. IL-1B, IL-6, IL-17, and TNF-α assayed using simple plex technique on an ELLA automated immunoassay system. IL-22 and IL-23 were assayed by ELISA.
The imiquimod-induced model of psoriasis was used to assess the efficacy of Compound A in treating psoriasis. […] Treatment started on Day 8 after induction so reference to day 1 of treatment is to Day 8 and day 7 of treatment is to Day 14.

[2] = IMI-psoriasis model, behavioral evaluation D15, 3 mg/kg, individual animals
[3] = IMI-psoriasis model, behavioral evaluation, 3 mg/kg, individual animals
[4] = IMI-psoriasis model, mice, 3 mg/kg, individual animals
[5] = IMI + 3 mg/kg, D8 (before start of treatment)

Compound: CSCCn1cc(-c2ccccc2)c(-c2cn(C)c(=O)c3[nH]c(-c4cnn(C(F)(F)F)c4)cc23)cc1=O [Compound C, 6-methyl-4-(1-(2-(methylthio)ethyl)-2-oxo-5-phenyl-1,2-dihydropyridin-4-yl)-2-(1-(trifluoromethyl)-1H-pyrazol-4-yl)-1,6-dihydro-7H-pyrrolo[2,3-c]pyridin-7-one]
- Selectivity (BD1/BD2) (BRD4 BD2; higher number denotes higher selectivity): >>>>
- BD2 (BRD4 BD2; lower number denotes higher potency): <

Compound: Deucravacitinib [reference compound]
- symptoms by day 15 (representative images) ([1]; 3 mg/kg): nearly entirely symptom free
- PASI-90 (change in PASI score ≥90%) by day 7 of treatment ([1]; 3 mg/kg IP once daily): surpassed PASI-90
- Body Weight D1 ([1]; IMI + 3 mg/kg, Day 1 (before treatment start on Day 8), individual animals, 3 mg/kg, in g (unit assumed)): 18.26 and 17.37 and 16.82 and 17.07 and 16.32 and 18.04 and 16.47 and 17.58
- Body Weight D3 ([1]; IMI + 3 mg/kg, Day 3 (before treatment start on Day 8), individual animals, 3 mg/kg, in g (unit assumed)): 16.20 and 16.31 and 14.76 and 15.24 and 15.52 and 15.99 and 14.97 and 15.55
- Body Weight D5 ([1]; IMI + 3 mg/kg, Day 5 (before treatment start on Day 8), individual animals, 3 mg/kg, in g (unit assumed)): 18.16 and 16.94 and 15.74 and 15.23 and 15.99 and 17.09 and 14.94 and 16.50
- Body Weight D7 ([1]; IMI + 3 mg/kg, Day 7 (before treatment start on Day 8), individual animals, 3 mg/kg, in g (unit assumed)): 17.33 and 17.08 and 15.79 and 15.48 and 16.18 and 17.55 and 15.22 and 16.65
- Body Weight D8 ([1]; IMI + 3 mg/kg, Day 8 (first day of treatment), individual animals, 3 mg/kg, in g (unit assumed)): 17.09 and 17.16 and 15.63 and 15.50 and 15.52 and 17.05 and 14.52 and 15.81
- Body Weight D9 ([1]; IMI + 3 mg/kg, Day 9, individual animals, 3 mg/kg, in g (unit assumed)): 16.60 and 16.54 and 15.63 and 15.57 and 16.01 and 16.79 and 14.75 and 13.93
- Body Weight D10 ([1]; IMI + 3 mg/kg, Day 10, individual animals, 3 mg/kg, in g (unit assumed)): 16.71 and 16.43 and 16.08 and 15.84 and 14.94 and 16.16 and 14.20
- Body Weight D11 ([1]; IMI + 3 mg/kg, Day 11, individual animals, 3 mg/kg, in g (unit assumed)): 17.38 and 15.87 and 15.51 and 15.55 and 16.43 and 14.72
- Body Weight D12 ([1]; IMI + 3 mg/kg, Day 12, individual animals, 3 mg/kg, in g (unit assumed)): 17.70 and 15.90 and 15.59 and 15.82 and 17.15 and 15.06
- Body Weight D13 ([1]; IMI + 3 mg/kg, Day 13, individual animals, 3 mg/kg, in g (unit assumed)): 17.75 and 16.24 and 15.77 and 15.95 and 16.97 and 14.52
- Body Weight D14 ([1]; IMI + 3 mg/kg, Day 14, individual animals, 3 mg/kg, in g (unit assumed)): 18.00 and 16.31 and 15.59 and 16.06 and 17.07 and 15.08
- Body Weight D15 ([1]; IMI + 3 mg/kg, Day 15, individual animals, 3 mg/kg, in g (unit assumed)): 18.03 and 16.39 and 16.00 and 16.29 and 17.17 and 15.22
- MBWC D1-D8 ([1]; IMI + 3 mg/kg, body weight change Day 1 to Day 8 (before treatment), individual animals, 3 mg/kg): −1.17 and −0.21 and −1.19 and −1.57 and −0.80 and −0.99 and −1.95 and −1.77
- MBWC D8-D15 ([1]; IMI + 3 mg/kg, body weight change Day 8 to Day 15 (treatment period), individual animals, 3 mg/kg): 0.94 and 0.76 and 0.50 and 0.77 and 0.12 and 0.70
- PASI Scores ([1]; D8 (day treatment started), individual animals): 6 (3×) and 7 and 10 and 8 (3×)
- PASI Scores ([1]; D9, individual animals): 7 (3×) and 6 (4×) and 8
- PASI Scores ([1]; D10, individual animals): 6 (6×) and 7
- PASI Scores ([1]; D11, individual animals): 6 (3×) and 5 (2×) and 4
- PASI Scores ([1]; D12, individual animals): 4 (2×) and 3 (4×)
- PASI Scores ([1]; D13, individual animals): 2 (3×) and 0 (2×) and 4
- PASI Scores ([1]; D14, individual animals): 1 (4×) and 0 and 2
- PASI Scores ([1]; D15, individual animals): 1 (2×) and 0 (4×)
- Use Enrichment D1 ([1]; IMI-psoriasis model, D1, 3 mg/kg, per cage (two animals)): 4.0
- Use Enrichment D10 ([1]; IMI-psoriasis model, D10, 3 mg/kg, per cage (two animals)): 0.0
- Use Enrichment D14 ([1]; IMI-psoriasis model, D14, 3 mg/kg, per cage (two animals)): 3.0 and 3.5 and 2.0
- Use Enrichment D15 ([1]; IMI-psoriasis model, D15, 3 mg/kg, per cage (two animals)): 4.0 and 2.0
- Number Licking [1, 2]: 1 and 2 (2×) and 7 and 8
- Number Licking + Scratching [1, 2]: 2 (3×) and 10 and 20
- Number Scratching [1, 2]: 1 and 0 (2×) and 3 and 12
- Distance Traveled [1, 3]: 14 m (2×) and 9 m and 19 m and 12 m
- Number Rearings [1, 3]: 31 and 22 and 58 and 68 and 38
- Use Enrichment Mean D1-D8 ([1]; IMI-psoriasis model, mean D1-D8, 3 mg/kg, per cage (two animals)): 2.50 and 2.00
- Spleen Weight [1, 4]: 195.00 and 187.27 and 171.30 and 177.57 and 171.11 and 127.21
- Spleen Weight Ratio [1, 4]: 1081.53 and 1142.59 and 1070.63 and 1090.06 and 996.56 and 835.81
- Mean scores of the presence of erythema on the skin of animals at the area of induction of psoriasis [1, 5]: 2.1 ± 0.1
- Mean scores of the presence of induration on the skin of animals at the area of induction of psoriasis [1, 5]: 2.8 ± 0.3
- Mean scores of the presence of peeling on the skin of animals at the area of induction of psoriasis [1, 5]: 2.5 ± 0.2
- Mean scores of the presence of erythema on the skin of animals at the area of induction of psoriasis ([1]; IMI + 3 mg/kg, D9): 2.1 ± 0.1
- Mean scores of the presence of induration on the skin of animals at the area of induction of psoriasis ([1]; IMI + 3 mg/kg, D9): 2.4 ± 0.2
- Mean scores of the presence of peeling on the skin of animals at the area of induction of psoriasis ([1]; IMI + 3 mg/kg, D9): 2.1 ± 0.1
- Mean scores of the presence of erythema on the skin of animals at the area of induction of psoriasis ([1]; IMI + 3 mg/kg, D10): 2.3 ± 0.2
- Mean scores of the presence of induration on the skin of animals at the area of induction of psoriasis ([1]; IMI + 3 mg/kg, D10): 2.0 ± 0.2
- Mean scores of the presence of peeling on the skin of animals at the area of induction of psoriasis ([1]; IMI + 3 mg/kg, D10): 1.9 ± 0.1
- Mean scores of the presence of erythema on the skin of animals at the area of induction of psoriasis ([1]; IMI + 3 mg/kg, D11): 1.8 ± 0.4
- Mean scores of the presence of induration on the skin of animals at the area of induction of psoriasis ([1]; IMI + 3 mg/kg, D11): 1.5 ± 0.2
- Mean scores of the presence of peeling on the skin of animals at the area of induction of psoriasis ([1]; IMI + 3 mg/kg, D11): 2.0 ± 0.3
- Mean scores of the presence of erythema on the skin of animals at the area of induction of psoriasis ([1]; IMI + 3 mg/kg, D12): 1.8 ± 0.2
- Mean scores of the presence of induration on the skin of animals at the area of induction of psoriasis ([1]; IMI + 3 mg/kg, D12): 0.5 ± 0.2
- Mean scores of the presence of peeling on the skin of animals at the area of induction of psoriasis ([1]; IMI + 3 mg/kg, D12): 1.0 ± 0.0
- Mean scores of the presence of erythema on the skin of animals at the area of induction of psoriasis ([1]; IMI + 3 mg/kg, D13): 0.8 ± 0.3
- Mean scores of the presence of induration on the skin of animals at the area of induction of psoriasis ([1]; IMI + 3 mg/kg, D13): 0.0 ± 0.0
- Mean scores of the presence of peeling on the skin of animals at the area of induction of psoriasis ([1]; IMI + 3 mg/kg, D13): 0.8 ± 0.3
- Mean scores of the presence of erythema on the skin of animals at the area of induction of psoriasis ([1]; IMI + 3 mg/kg, D14): 0.2 ± 0.2
- Mean scores of the presence of induration on the skin of animals at the area of induction of psoriasis ([1]; IMI + 3 mg/kg, D14): 0.0 ± 0.0
- Mean scores of the presence of peeling on the skin of animals at the area of induction of psoriasis ([1]; IMI + 3 mg/kg, D14): 0.8 ± 0.2
- Mean scores of the presence of erythema on the skin of animals at the area of induction of psoriasis ([1]; IMI + 3 mg/kg, D15): 0.0 ± 0.0
- Mean scores of the presence of induration on the skin of animals at the area of induction of psoriasis ([1]; IMI + 3 mg/kg, D15): 0.0 ± 0.0
- Mean scores of the presence of peeling on the skin of animals at the area of induction of psoriasis ([1]; IMI + 3 mg/kg, D15): 0.3 ± 0.2
- Mean PASI Scores in IMI-Psoriasis Model ([1]; mice, IMI + 3 mg/kg, D8 (before start of treatment)): 7.4 ± 0.5
- Mean PASI Scores in IMI-Psoriasis Model ([1]; mice, IMI + 3 mg/kg, D9): 6.6 ± 0.3
- Mean PASI Scores in IMI-Psoriasis Model ([1]; mice, IMI + 3 mg/kg, D10): 6.1 ± 0.1
- Mean PASI Scores in IMI-Psoriasis Model ([1]; mice, IMI + 3 mg/kg, D11): 5.3 ± 0.3
- Mean PASI Scores in IMI-Psoriasis Model ([1]; mice, IMI + 3 mg/kg, D12): 3.3 ± 0.2
- Mean PASI Scores in IMI-Psoriasis Model ([1]; mice, IMI + 3 mg/kg, D13): 1.7 ± 0.6
- Mean PASI Scores in IMI-Psoriasis Model ([1]; mice, IMI + 3 mg/kg, D14): 1.0 ± 0.3
- Mean PASI Scores in IMI-Psoriasis Model ([1]; mice, IMI + 3 mg/kg, D15): 0.3 ± 0.2
- use of enrichment (nesting) ([1]; relative to vehicle-treated psoriasis animals): about half that seen with Compound A
